Values of other authors as cited in US20220031669A1, “Compositions for Broad Spectrum Topical Antimicrobials” (priority 2020, published 2022).

Details: thiol group of acetylcysteine

pKa of SH: 9.4
SMILES: CC(=O)N[C@@H](CS)C(=O)O [acetylcysteine]
